One experiment has as its target T1, Human Platelets (Homo sapiens, UniProt P21731).
T1 sequence (P21731 1-343): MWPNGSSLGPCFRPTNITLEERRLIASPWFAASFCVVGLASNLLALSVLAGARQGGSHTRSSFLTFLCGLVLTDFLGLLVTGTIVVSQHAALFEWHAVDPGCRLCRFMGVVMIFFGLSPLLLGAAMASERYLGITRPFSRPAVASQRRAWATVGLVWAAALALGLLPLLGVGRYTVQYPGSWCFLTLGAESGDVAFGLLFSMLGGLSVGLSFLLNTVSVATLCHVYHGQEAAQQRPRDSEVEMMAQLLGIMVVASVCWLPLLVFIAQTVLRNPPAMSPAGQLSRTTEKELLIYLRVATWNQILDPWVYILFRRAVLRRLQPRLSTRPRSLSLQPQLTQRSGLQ
Kind of experiment: Inhibition of induced threshold aggregation of human platelets (aggregating agent U44069, platelet rich plasma). It is filed as cell-based. The conditions noted are these: for IC50: human platelet rich plasma, threshold aggregation induced by U44069, read-out: Inhibition of platelet aggregation (IC50 in µg/ml) (converted). Here is the method: Inhibition of Induced Threshold Aggregation of Human
Human platelet rich plasma (PRP) is prepared from venous blood of male volunteers who have taken no medication for ten days prior to test. […] The supernatant (PRP) is transferred into plastic tubes. Platelet poor plasma (PPP) is obtained by centrifuging the residual blood cells at 4000 g for ten minutes. PRP is left to stand at least one half hour prior to testing.
Platelet Aggregation is measured using a Payton Aggregometer and Recorder. […] Drug vehicle (control), or a drug concentration is then added in a volume of 0.5 microliter. After one minute, the aggregating agent (U44069, 9,11-dideoxy-9α,11α-epoxymethano PGF 2a ) is added to the cuvette in a volume of 25 microliters. Recording is continued until the maximal response is obtained.
The threshold (approximately 20 - 30% of maximum) aggregation concentration of the agonist to be used is first determined in the presence of the drug vehicle (control). […] All drugs are dissolved in dimethylsulfoxide.
The height of the aggregation response (measured in divisions of the recorder paper, 1 division × 2.5 mm) in the presence of the drug is recorded, and calculated as percent inhibition of the mean height of the control threshold responses.

Experiment [1] relates to Guinea Pig Tracheal Chain. Kind of experiment: Estimation of pA2 values in guinea pig tracheal chain (contractile agonist U-44069). More on the design: species or system guinea pigs. The note with it: for Kb: Cavia porcellus; for Kb / pA2: guinea pig tracheal chain, antagonism of U-44069 contraction, logarithmic scale; for prostanoid antagonist activity (statement in words): Table 4 data (platelet aggregation and pA2). The text has this: Estimation of pA2 Values in Guinea Pig Tracheal Chain
Male albino Hartley strain guinea pigs (300-350 gm) were sacrificed by a blow to the head and exsanguinated. The trachea was removed, freed of extraneous tissue and sectioned into rings of 1-2 mm thickness. Five rings were tied together in series, ensuring that the tracheal muscle lay in the same vertical plane, and the cartilage of each ring then separated at a point directly opposite the muscle. The chains were suspended under 1 gm resting tension in modified Krebs solution (NaCl, 6.87; NaHCO3, 2.1; dextrose, 2.1; KC1, 0.32; CaCl2, 0.28; MgSO4, 7H 0, 0.11; KH2PO4, 0.16; gm/L: equilibrated with 5% C02 in O2 for 1 hour) containing indomethacin (1.4 x 10^-5M) to suppress endogenous protaglandin synthesis, Organ bath temperature was maintained at 37°C and 5% C02 in 02 diffused continously. Isometric tension changes were recorded from a Gould-Statham (UTC 2) force displacement transducer connected to a Beckman Type R Dynograph. For assay purposes initial maximal contractions were elicited with a high concentration of the contractile agonist [U-44069, 9.11-dideoxy-9α,11α-epoxymethano PGF2α] and the tissue subsequently washed at intervals until tension returned to baseline. Agonist dose response curves were obtained using a cumulative-dose schedule (4-8 doses) and the preparations then washed at regular intervals until baseline tension was recorded. After an appropriate interval (1-1.5 hrs) agonist dose response curves were repeated in the presence of antagonist drug concentrations. […] EC50 values were obtained by regression analysis and used to calculate 'apparent' and Schild Plot pA2 values by the method of Tallarida and Murray 1981.

`COc1ccc2c(c1)c1c(n2Cc2ccc(Cl)cc2)C(C(=O)O)CCC1` (stereo not drawn) [E]: at Human Platelets, the IC50 was 11400 nM. Besides, in experiment [1], the Kb was 219 nM and the “prostanoid antagonist activity (statement in words)” value (“prostanoid antagonist activity” for short) is reported as “severe loss of activity”.
For the compound `O=C(O)CC1CCCc2c1n(Cc1ccc(Cl)c(Cl)c1)c1ccc(F)cc21` (stereo not drawn) [Compound 7, 9-(3,4-dichloro)benzyl-6-fluoro-1,2,3,4-tetrahydro-carbazol-1-yl-acetic acid], the IC50 on Human Platelets is 222 nM. The Kb in experiment [1] was 5.01 nM.
In the case of `O=C(O)CC1CCCc2c1n(Cc1ccc(Cl)cc1)c1c(F)cccc21` (stereo not drawn) [Compound 14, 9-p-chlorobenzyl-8 fluoro-1,2,3,4-tetrahydrocarbazol-1-yl-acetic acid], the IC50 at Human Platelets is 215 nM. In experiment [1], the Kb was 0.398 nM.
On the same counts, the results for `COc1ccc2c(c1)c1c(n2Cc2ccc(Cl)cc2)C(CC(=O)O)CCC1` (stereo not drawn) [Compound 2, 9-p-chlorobenzyl-6-methoxy-1,2,3,4-tetrahydrocarbazol-1-yl-acetic acid] are 782 nM and 3.98 nM.
Take `COc1ccc2c(c1)c1c(n2Cc2ccc(Cl)cc2)CC(CC(=O)O)CC1` (stereo not drawn) [Compound A, reference compound]: the “times less potent as an inhibitor of platelet aggregation” value on Human Platelets (compared with compound 2) is ~12. Besides, the IC50 on Human Platelets was 9120 nM. Also, in experiment [1], the Kb was 158 nM. Moreover, in experiment [1] (compared with compound 2, printed as antilog of 1.6), the “pA2 is a factor less than that of compound 2” value is 14.
In the case of `O=C(O)CC1CCCc2c1n(Cc1ccc(Cl)cc1)c1ccc(Br)cc21` (stereo not drawn) [Compound 12, 6-bromo-9-p-chlorobenzyl-l,2,3,4-tetrahydrocarbazol-l-yl-acetic acid], the IC50 on Human Platelets is 208 nM. Further, in experiment [1], the Kb is 12.6 nM.
The matching figures for `CC(c1ccccc1)n1c2c(c3cc(F)ccc31)CCCC2CC(=O)O` (stereo not drawn) [Compound 8, 9-[1-(1-phenyl)ethyl]-6-fluoro-1,2,3,4-tetrahydro-carbazol-1-yl-acetic acid]: 256 nM and > 1000 nM.
The matching figures for `Cc1ccc2c(c1)c1c(n2Cc2ccc(Cl)cc2)C(CC(=O)O)CCC1` (stereo not drawn) [Compound 13, 9-p-chlorobenzyl-6-methyl-1,2,3,4-tetrahydrocarbazol-1-yl-acetic acid]: 217 nM and 25.1 nM.
Turning to `O=C(O)CC1CCCc2c1n(Cc1ccc(Cl)cc1)c1ccc(Cl)cc21` (stereo not drawn) [Compound 10, 9-p-chlcrobenzyl-6-chloro-1,2,3,4-tetrahydrocarbazol-1-yl-acetic acid], the IC50 on Human Platelets is 258 nM. Also, the Kb in experiment [1] was 10 nM.
The matching figures for `Cc1cccc2c3c(n(Cc4ccc(Cl)cc4)c12)C(CC(=O)O)CCC3` (stereo not drawn) [Compound 11, 9-p-chlorobenzyl-8-methyl-l,2,3,4-tetrahydrocarbazol-1-yl-acetic acid]: 272 nM and 0.316 nM.
In the case of `COc1ccc2c(c1)c1cccc(CC(=O)O)c1n2Cc1ccc(Cl)cc1` [C], the IC50 on Human Platelets was > 79000 nM. In experiment [1], the Kb was 263 nM and the “prostanoid antagonist activity” value was “does not possess any significant activity”.
With `COc1ccc(Cn2c3c(c4cc(F)ccc42)CCCC3CC(=O)O)cc1` (stereo not drawn) [Compound 6, 9-p-methoxybenzyl-6-fluoro-1,2,3,4-tetrahydrocarbazol-1-yl-acetic acid], on Human Platelets, the IC50 is 408 nM. Also, in experiment [1], the Kb is 2 nM.
On the same counts, the results for `O=C(O)CC1CCCc2c1n(Cc1ccc(Cl)cc1)c1cccc(F)c21` (stereo not drawn) [Compound 16, 9-p-chlorobenzyl-5-fluoro-1,2,3,4-tetrahydrocarbazol-1-yl-acetic acid] are 457 nM and 1.26 nM.
As for `O=C(O)CC1CCCc2c1n(Cc1ccc(Cl)cc1)c1ccc(F)cc21` (single isomer, unassigned; (-)) [Compound 3, (-)9-p-chlorobenzyl-6-fluoro-1,2,3,4-tetrahydro-carbazol-1-yl-acetic acid], on Human Platelets, the IC50 was 134 nM. Moreover, the pA2 in experiment [1] is listed as 8.0.
With `CC(C)n1c2c(c3cc(F)ccc31)CCCC2CC(=O)O` (stereo not drawn) [G, 6-fluoro-9-isopropyl-1,2,3,4-tetrahydrocarbazol-1-yl-acetic acid], the IC50 on Human Platelets was 47000 nM. For the same compound, in experiment [1], the Kb is > 1000 nM and the “prostanoid antagonist activity” value is on record as “almost completely lost activity”.
Turning to `O=C(O)CC1CCCc2c1n(Cc1ccc(Cl)cc1)c1ccc(F)cc21` (stereo not drawn) [Compound 1, 9-p-chlorobenzyl-6-fluoro-1,2,3,4-tetrahydrocarbazol-1-yl-acetic acid], the IC50 at Human Platelets is 80.7 nM. The pA2 in experiment [1] is 8.6.
Regarding `O=C(O)CC1CCCc2c1n(Cc1ccc(Cl)cc1)c1c(Cl)cc(Cl)cc21` (stereo not drawn) [Compound 19, 9-p-chlorobenzyl-6,8-dichloro-1,2,3,4-tetrahydro-carbazol-1-yl-acetic acid], the IC50 at Human Platelets is 166 nM. Further, in experiment [1], the Kb was 63.1 nM.
Regarding `O=C(O)CC1CCCc2c1n(CCc1ccc(Cl)cc1)c1ccc(F)cc21` (stereo not drawn) [Compound H, 9-[1-(2-p-chlorophenyl)ethyl]-6-fluoro-1,2,3,4-tetra-hydrocarbazol-1-yl-acetic acid], at Human Platelets, the IC50 was 35200 nM. Also, in experiment [1], the Kb is 158 nM and the “prostanoid antagonist activity” value is recorded as “serious loss of activity”.
As to `CC(C(=O)O)C1CCCc2c1n(Cc1ccc(Cl)cc1)c1ccc(F)cc21` (stereo not drawn) [Compound 20, 2-[9-p-chlorobenzyl-6-fluoro-1,2,3,4-tetrahydro-carbazol-1-yl-]propanoic acid], at Human Platelets, the IC50 is 803 nM. The Kb in experiment [1] was 158 nM.
Take `O=C(O)CC1CCCc2c1n(Cc1ccc(Cl)cc1)c1ccccc21` (stereo not drawn) [Compound 9, 9-p-chlorobenzyl-1,2,3,4-tetrahydrocarbazol-1-yl-acetic acid]: at Human Platelets, the IC50 is 141 nM. Also, the Kb in experiment [1] is 1.26 nM.
For `COc1ccc2c(c1)c1c(n2Cc2ccc(Cl)cc2)CC(C(=O)O)CC1` (stereo not drawn) [B], the IC50 on Human Platelets is > 81100 nM. Also, in experiment [1], the Kb was > 1000 nM and the “prostanoid antagonist activity” value is listed as “no significant activity”.
Take `COc1ccc2c(c1)c1c(n2Cc2ccc(Cl)cc2)CCCC1C(=O)O` (stereo not drawn) [D]: in experiment [1], the Kb is > 1000 nM and the “prostanoid antagonist activity” value is “severe loss of activity”.
Regarding `O=C(O)CC1CCCc2c1[nH]c1ccc(F)cc21` (stereo not drawn) [Compound F, 6-fluoro-1,2,3,4-tetrahydrocarbazol-1-yl-acetic acid], the IC50 on Human Platelets is 13800 nM. In addition, in experiment [1], the antagonist equilibrium constant (Kb) is > 1000 nM and the “prostanoid antagonist activity” value is “severe loss of activity”.
